# According to US11305024B2, “Cross-linked polymer modified nanoparticles” (OREGON HEALTH & SCIENCE UNIVERSITY, priority 2015, dated 2022):
# Columns and labels:
# BT474 = assay: Screening of siRNA in combination with paclitaxel, cell viability; format: cell-based; details: for Cell Viability (% of Scramble Control): 30 nM siRNA; for Enhanced Paclitaxel effect due to gene knockdown: over paclitaxel alone
# Description: (§1) Cells were first treated with 30 nM siRNAs (and commercial DharmaFECT™) followed by 5 nM paclitaxel treatment 24 hours later. Cell viability was determined 3 days later. […] In short, knocking down HER2 had the greatest impact on paclitaxel toxicity in BT474 (having highest HER2 level). […] The effect of paclitaxel combined with siAKT1/BCL2 or siEPS8L1 was also significant. The best enhancement by siAKT1/BCL2 (38-41%) appeared to be with basal cells, HCC1954, BT549, and HCC70. EPS8L1 is involved in EGFR signaling and functions in cell migration.
# BT549 = assay: as above; format: cell-based; details: for Cell Viability (% of Scramble Control): 30 nM siRNA; for Enhanced Paclitaxel effect due to gene knockdown: over paclitaxel alone
# Description: as §1
# HCC1954 [1] = assay: as above; format: cell-based; details: for Cell Viability (% of Scramble Control): 30 nM siRNA; for Enhanced Paclitaxel effect due to gene knockdown: over paclitaxel alone
# Description: as §1
# HCC70 = assay: as above; format: cell-based; details: for Cell Viability (% of Scramble Control): 30 nM siRNA; for Enhanced Paclitaxel effect due to gene knockdown: over paclitaxel alone
# Description: as §1
# SKBR3 = assay: as above; format: cell-based; details: for Cell Viability (% of Scramble Control): 30 nM siRNA; for Enhanced Paclitaxel effect due to gene knockdown: over paclitaxel alone
# Description: as §1
# [2] = metastatic solid tumor patients; cited from earlier work
# [3] = Serum protection assay (siRNA in 50% human serum); format: in vitro ADME; details: 37° C.
# Description: siRNA-nanoparticles were incubated with 50 v/v % human serum in PBS for a specified period of time (0, 0.5, 1, 2, 4, 8, 24, and 48 hours) at 37° C. under continuous shaking. At the end of each time point, the sample was mixed with proteinase K (200 μg/mL) and frozen at −80° C. to stop the enzymatic reaction. For the analysis, samples were thawed and mixed with 1.0 wt. % SDS in order to release siRNA from the nanoparticles. The sample was then mixed with an equal amount of 2× loading buffer and loaded into a 15% TBE-urea gel (BioRad). The gel ran at 100 V for the first 20 minutes and 150 V for another hour. The gel was then stained with SyBR Gold (Life Technologies) following the manufacturer's protocol and viewed in a UV chamber. The band intensity was analyzed by ImageJ software (National Institutes of Health, Bethesda, Md.). The fraction of intact siRNA was reported as a function of time that the siRNA-nanoparticles were in 50% serum.
# HER2+ cell lines = assay: Growth inhibition by siHER2 in a panel of HER2+ cell lines; format: cell-based; details: 19 out of 20 HER2+ cell lines; read-out: dose of the siHER2 required to inhibit cell growth by 50% (G150)
# HCC1954 [4] = details: in vitro and/or in mice; cited from earlier work
# [5] = tested on: basal cells, HCC1954, BT549, and HCC70; assay: Screening of siRNA in combination with paclitaxel, basal cells as a group; format: cell-based
# Description: as §1
# Red blood cells = assay: Hemolysis; format: cell-based, human; details: 4 hours, 37° C.; nanoparticle 70 or 350 μg/mL (1× or 5×)
# Description: Nanoparticles were tested at 1× and 5× of the intended human blood level. Studies of blood compatibility were performed following or with minor modification from the Nanotechnology Characterization Laboratory's (Frederick, Md.) published protocols.
# Human blood was collected in the presence of EDTA, and serum was removed. Red blood cells were suspended at 1×10^9 cells per mL and exposed to nanoparticle (final concentrations of 70 or 350 μg/mL for 1× or 5×, respectively) for 4 hours and 37° C. Following centrifugation, absorbance of hemoglobin in the supernatants (at 542 nm) was measured and used to quantify percent hemolysis.
# Platelet-rich plasma = assay: Platelet aggregation assay; set-up: species or system human; details: monitored for three minutes; 1× and 5×
# Description: Platelet-rich plasma (PRP) was obtained following centrifugation of isolated blood (diluted in 3.2% sodium citrate, 1:10). The isolated blood was centrifuged at 200 g for 20 minutes. The supernatant (which contains PRP) was collected and maintained at room temperature prior to treatment. Following a 1-min incubation at 37° C. (baseline), reactions were initiated by addition of nanoparticle (70 or 350 μg/mL) or collagen related peptide (CRP; 100 μg/ml) and monitored for three minutes for optical density via an aggregometer (Chrono-log Corp).
# luciferase = assay: Luciferase silencing by siLUC-loaded nanoconstructs in LM2-4luc+/H2N cells; format: cell-based; details: 13-130 nM GALA, 15 nM siRNA, NP/siRNA 50, non-cross-linked PEI, 2 days
# Description: The LM2-4luc+/H2N cell line (over-expressing luciferase and HER2; J. M. du Manoir et al., 2006) was used for initial assessment of the nanoparticles for gene silencing efficacy when delivering siRNA against luciferase (siLUC). Cells were plated at 3000 cells/well in a 96-well plate. One day after seeding, cells were treated with siLUC-nanoparticles. The nanoparticles were loaded with siLUC at NP/siRNA ratio of 25 or 50 by mass. […] The commercially available transfection agent, DharmaFECT™ (Dharmacon, Lafayette, Colo.), with the same siLUC dose served as a positive control. Non-targeting or scrambled siRNA (siSCR) was used throughout as a negative control. After overnight incubation (−20 hours), cells were washed once to remove the nanoconstructs and replenished with a complete media. At 48 hours post-treatment, cells were lysed and analyzed for luciferase activity by the Luciferase Glow Assay Kit (Thermo Fisher Scientific, Waltham, Mass.) and protein concentration by the BCA protein assay kit (Thermo Fisher Scientific), following manufacturer's protocols. Luciferase activity of the lysate was normalized with the corresponding protein concentration in the same well and reported as a percentage of the untreated or siSCR controls. All treatments were performed with replicates.
# [6] = BT474, then 5 nM paclitaxel 24 hours later (paclitaxel +)
# [7] = BT549, then 5 nM paclitaxel 24 hours later (paclitaxel +)
# [8] = HCC1954, then 5 nM paclitaxel 24 hours later (paclitaxel +)
# [9] = HCC70, then 5 nM paclitaxel 24 hours later (paclitaxel +)
# [10] = SKBR3, then 5 nM paclitaxel 24 hours later (paclitaxel +)
# [11] = BT474 (HER2 positive, luminal), DharmaFECT, paclitaxel −
# [12] = BT549 (triple negative, basal), DharmaFECT, paclitaxel −
# [13] = HCC1954 (HER2 positive, basal), DharmaFECT, paclitaxel −
# [14] = HCC70 (triple negative, basal), DharmaFECT, paclitaxel −
# [15] = SKBR3 (HER2 positive, luminal), DharmaFECT, paclitaxel −
compound,measurement,setting,value
"siSCR: non-targeting or scrambled siRNA control, SEQ ID NO. 5 and 6 (chain 1 UGGUUUACAUGUCGACUAA; chain 2 UUAGUCGACAUGUAAACCA; listed as RNA, chemistry not given here) [reference compound]",Cell Viability (% of Scramble Control),BT474; [6],58%
same,Cell Viability (% of Scramble Control),BT549; [7],59%
same,Cell Viability (% of Scramble Control),HCC1954 [1]; [8],55%
same,Cell Viability (% of Scramble Control),HCC70; [9],70%
same,Cell Viability (% of Scramble Control),SKBR3; [10],39%
[SH-].[SH-].[S]=[Mo]=[S] [tetrathiomolybdate],treated patients with mild copper deficiency who achieved stable disease,[2],five out of six
"siHER2: siRNA against HER2, SEQ ID NO. 1 and 2 (chain 1 CACGUUUGAGUCCAUGCCCAAUU; chain 2 UUGGGCAUGGACUCAAACGUGUU; listed as RNA, chemistry not given here)",half-life,[3],about 1 hour
same,time within which siHER2 was degraded,[3]; without nanoparticles,≤ 0.5 h
same,IC50,HER2+ cell lines,< 5 nM
same,Cell Viability (% of Scramble Control),BT474; [11],35%
same,Cell Viability (% of Scramble Control),BT474; [6],26%
same,Enhanced Paclitaxel effect due to gene knockdown,BT474; BT474,32%
same,Cell Viability (% of Scramble Control),BT549; [12],51%
same,Cell Viability (% of Scramble Control),BT549; [7],40%
same,Enhanced Paclitaxel effect due to gene knockdown,BT549; BT549,19%
same,Cell Viability (% of Scramble Control),HCC1954 [1]; [13],68%
same,Cell Viability (% of Scramble Control),HCC1954 [1]; [8],49%
same,Enhanced Paclitaxel effect due to gene knockdown,HCC1954 [1]; HCC1954,6%
same,Cell Viability (% of Scramble Control),HCC70; [14],76%
same,Cell Viability (% of Scramble Control),HCC70; [9],49%
same,Enhanced Paclitaxel effect due to gene knockdown,HCC70; HCC70,21%
same,Cell Viability (% of Scramble Control),SKBR3; [15],51%
same,Cell Viability (% of Scramble Control),SKBR3; [10],33%
same,Enhanced Paclitaxel effect due to gene knockdown,SKBR3; SKBR3,6%
N.N.[Cl][Pt][Cl] [cisplatin],resistance of HCC1954,HCC1954 [4],resistant
"siAKT1/BCL2: dual-targeting siRNA duplex, one strand targets AKT1, the other BCL2, SEQ ID NO. 7 and 8 (chain 1 AUUCAGUUUCACAUUGCUUGGUGAC; chain 2 GUCACCAAGAACUGUGACACAGAAGGG; listed as RNA, chemistry not given here)",Cell Viability (% of Scramble Control),BT474; [11],74%
same,Cell Viability (% of Scramble Control),BT474; [6],39%
same,Enhanced Paclitaxel effect due to gene knockdown,BT474; BT474,19%
same,Cell Viability (% of Scramble Control),BT549; [12],54%
same,Cell Viability (% of Scramble Control),BT549; [7],23%
same,Enhanced Paclitaxel effect due to gene knockdown,BT549; BT549,36%
same,Cell Viability (% of Scramble Control),HCC1954 [1]; [13],47%
same,Cell Viability (% of Scramble Control),HCC1954 [1]; [8],17%
same,Enhanced Paclitaxel effect due to gene knockdown,HCC1954 [1]; HCC1954,38%
same,Cell Viability (% of Scramble Control),HCC70; [14],42%
same,Cell Viability (% of Scramble Control),HCC70; [9],29%
same,Enhanced Paclitaxel effect due to gene knockdown,HCC70; HCC70,41%
same,Cell Viability (% of Scramble Control),SKBR3; [15],77%
same,Cell Viability (% of Scramble Control),SKBR3; [10],29%
same,Enhanced Paclitaxel effect due to gene knockdown,SKBR3; SKBR3,10%
same,best enhancement of paclitaxel effect,[5],38-41%
pertuzumab,resistance of HCC1954,HCC1954 [4],resistant
Triton-X,hemolysis of red blood cells,Red blood cells,complete blood lysis
collagen related peptide,platelet aggregation,Platelet-rich plasma,triggered aggregation immediately
GALA,effect of co-loaded peptide on silencing efficacy,luciferase,clearly enhanced silencing efficacy of the nanoconstructs
